{"source": "paper PMC7586811", "about": "(Journal of Clinical Pharmacology, 2020)", "key": {"[1]": {"details": "clinical use; cited from earlier work"}, "[2]": {"test_system": "CYP3A4", "details": "human liver microsomes; ref data on file, Incyte Corporation; cited from earlier work"}, "[3]": {"assay": "Safety and tolerability in healthy participants", "type": "in vivo, human", "details": "for participants who experienced TEAEs: n = 18; for TEAEs considered related to the drug: investigator assessment"}, "[4]": {"assay": "not given", "remark": "listed apart in the source"}, "[5]": {"test_system": "other PI3K isoforms", "details": "cited from earlier work"}, "[6]": {"details": "dose range from 5 to 45 mg, relapsed or refractory B‐cell malignancies; cited from earlier work"}, "[7]": {"test_system": "P‐glycoprotein (P‐gp)", "details": "read-out: P‐gp inhibition IC50; in vitro; ref data on file, Incyte Corporation; cited from earlier work"}, "[8]": {"test_system": "P‐glycoprotein (P‐gp)", "details": "in vitro; ref data on file, Incyte Corporation; cited from earlier work"}, "[9]": {"test_system": "human OATP1B and OATP1B3", "details": "in vitro; ref data on file, Incyte Corporation; cited from earlier work"}, "[10]": {"test_system": "CYP3A4", "details": "recombinant human CYP isozymes, earlier in vitro studies; cited from earlier work"}, "[11]": {"test_system": "major CYPs", "details": "earlier in vitro studies; cited from earlier work"}, "[12]": {"details": "cited from earlier work"}, "[13]": {"details": "phase 1/2 study; cited from earlier work"}, "[14]": {"details": "concomitant itraconazole 200 mg versus parsaclisib 10 mg alone"}, "[15]": {"details": "parsaclisib 10 mg single oral dose alone, fasted, healthy participants, n = 18"}, "[16]": {"details": "concomitant rifampin 600 mg versus parsaclisib 20 mg alone"}, "[17]": {"details": "parsaclisib 20 mg single oral dose alone, fasted, healthy participants, n = 18"}}, "note": "Where two headings read alike, the source gives them in different places.", "data": [{"smiles": "C[C@H](Nc1ncnc2[nH]cnc12)c1cc2cccc(Cl)c2c(=O)n1-c1ccccc1", "note": "[duvelisib]", "values": [{"measurement": "associated toxicities", "setting": "[1]", "result": "transaminitis (increased alanine and aspartate transaminase levels), colitis, diarrhea, and pneumonitis"}]}, {"smiles": "CC(=O)N1CCN(c2ccc(OCC3COC(Cn4ccnc4)(c4ccc(Cl)cc4Cl)O3)cc2)CC1", "note": "(stereo not shown) [ketoconazole]", "values": [{"measurement": "effect on parsaclisib metabolism", "setting": "[2]", "result": "inhibited parsaclisib metabolism"}]}, {"smiles": "CO[C@H]1/C=C/O[C@@]2(C)Oc3c(C)c(O)c4c(O)c(c(/C=N/N5CCN(C)CC5)c(O)c4c3C2=O)NC(=O)/C(C)=C\\C=C\\[C@H](C)[C@H](O)[C@@H](C)[C@@H](O)[C@@H](C)[C@H](OC(C)=O)[C@@H]1C", "note": "[rifampin, reference compound]", "values": [{"measurement": "participants reporting generalized pruritus and maculopapular rash", "setting": "[3]; of all 36 participants, all in cohort 2, considered related to rifampin", "result": 5.6, "unit": "%"}]}, {"smiles": "CCOc1c([C@H](C)n2nc(C)c3c(N)ncnc32)cc(Cl)c(F)c1[C@@H]1CNC(=O)C1", "note": "[Parsaclisib]", "values": [{"measurement": "dose interruptions or reductions, discontinuations, serious AEs, deaths due to TEAEs", "setting": "[3]; both cohorts", "result": "No dose interruptions or reductions, participant discontinuations, serious AEs, or deaths due to TEAEs"}, {"measurement": "participants who experienced TEAEs", "setting": "[3]; cohort 1: parsaclisib 10 mg + itraconazole 200 mg", "result": 27.8, "unit": "%"}, {"measurement": "participants with grade 4 TEAE (increased creatine phosphokinase)", "setting": "[3]; cohort 2, day 44, not considered related to parsaclisib or rifampin", "result": 5.6, "unit": "%"}, {"measurement": "participants who experienced TEAEs", "setting": "[3]; cohort 2: parsaclisib 20 mg + rifampin 600 mg", "result": 44.4, "unit": "%"}, {"measurement": "TEAEs considered related to the drug", "setting": "[3]; healthy participants", "result": "No TEAE was considered related"}, {"measurement": "participants reporting headache (most common TEAE)", "setting": "[3]; of all 36 participants, all cases in cohort 2 (parsaclisib + rifampin)", "result": 13.9, "unit": "%"}, {"measurement": "overall safety and tolerability", "setting": "[3]; single‐dose parsaclisib alone or combined with itraconazole or rifampin, healthy participants", "result": "safe and well tolerated"}, {"measurement": "decrease in geometric mean CL/F", "setting": "[14]", "result": "approximately 51%"}, {"measurement": "increase in geometric mean AUC0‐∞", "setting": "[14]", "result": 107, "unit": "%"}, {"measurement": "increase in geometric mean Cmax", "setting": "[14]", "result": 21, "unit": "%"}, {"measurement": "prolongation of mean t½,β", "setting": "[14]", "result": 59, "unit": "%"}, {"measurement": "reduction of mean Vz/F", "setting": "[14]", "result": "approximately 24%"}, {"measurement": "CL/F, Geometric Mean", "setting": "[15]", "result": 2.9, "unit": "L/h"}, {"measurement": "CL/F, Mean ± SD", "setting": "[15]", "result": "2.9 ± 0.3", "unit": "L/h"}, {"measurement": "increase in the exposure of parsaclisib", "setting": "single 10‐mg dose, concomitant itraconazole", "result": "approximately 2 fold"}, {"measurement": "decrease of AUC0‐∞", "setting": "[4]; [16]", "result": 77, "unit": "%"}, {"measurement": "increase in geometric mean CL/F", "setting": "[4]; [16]", "result": "approximately 4.4 fold"}, {"measurement": "reduction of Cmax", "setting": "[4]; [16]", "result": 43, "unit": "%"}, {"measurement": "shortening of mean t½,β", "setting": "[4]; [16]", "result": 71, "unit": "%"}, {"measurement": "CL/F, Geometric Mean", "setting": "[4]; [17]", "result": 2.9, "unit": "L/h"}, {"measurement": "CL/F, Mean ± SD", "setting": "[4]; [17]", "result": "3.0 ± 0.5", "unit": "L/h"}, {"measurement": "decrease in the exposure of parsaclisib", "setting": "[4]; single 20‐mg dose, concomitant rifampin", "result": "approximately 4 fold"}, {"measurement": "selectivity relative to other PI3K isoforms", "setting": "[5]", "result": "approximately 20 000 fold"}, {"measurement": "dose‐exposure relationship at steady state", "setting": "[6]", "result": "linear"}, {"measurement": "IC50", "setting": "[7]", "result": 18.1, "unit": "µM"}, {"measurement": "P‐gp substrate: concentration at which efflux transport is saturated", "setting": "[8]", "result": "> 100", "unit": "µM"}, {"measurement": "substrate of human OATP1B and OATP1B3", "setting": "[9]", "result": "not likely a substrate"}, {"measurement": "CYP isozyme responsible for metabolism", "setting": "[10]", "result": "primarily metabolized by CYP3A4"}, {"measurement": "inhibition of major CYPs", "setting": "[11]", "result": "not an inhibitor of major CYPs tested"}, {"measurement": "major metabolites in clinical plasma samples", "setting": "[12]; clinical plasma samples, ref data on file, Incyte Corporation", "result": "no major metabolites were detected"}, {"measurement": "human‐specific metabolite", "setting": "[12]; in vitro, rat, dog, and human", "result": "no human‐specific metabolite identified"}, {"measurement": "dose‐limiting toxicities", "setting": "[13]", "result": "no dose‐limiting toxicities identified"}]}, {"smiles": "CCC(C)n1ncn(-c2ccc(N3CCN(c4ccc(OCC5COC(Cn6cncn6)(c6ccc(Cl)cc6Cl)O5)cc4)CC3)cc2)c1=O", "note": "(stereo not shown) [itraconazole, Itraconazole, reference compound]", "values": [{"measurement": "TEAEs considered related to the drug", "setting": "[3]; healthy participants", "result": "No TEAE was considered related"}]}, {"smiles": "CC[C@H](Nc1ncnc2[nH]cnc12)c1nc2cccc(F)c2c(=O)n1-c1ccccc1", "note": "[idelalisib]", "values": [{"measurement": "associated toxicities", "setting": "[1]", "result": "transaminitis (increased alanine and aspartate transaminase levels), colitis, diarrhea, and pneumonitis"}]}]}
